Source: ChEMBL document CHEMBL1681710, “Pyridyl amides as potent inhibitors of T-type calcium channels” (Bioorg Med Chem Lett, 2011)
Each block holds one compound with its values, some of them ahead of it. Active and inactive are the calls of the source. The calls are words filed in the database; no cut-off is given here.

Tests used:
[1] = molecular target: T1, Voltage-dependent T-type calcium channel subunit alpha-1I (Homo sapiens, UniProt Q9P0X4); assay: Antagonist activity at Cav3.3 alpha1i expressed in HEK293 cells by depolarized FLIPR assay; assay type: functional, cell-based
T1 sequence (Q9P0X4 whole entry): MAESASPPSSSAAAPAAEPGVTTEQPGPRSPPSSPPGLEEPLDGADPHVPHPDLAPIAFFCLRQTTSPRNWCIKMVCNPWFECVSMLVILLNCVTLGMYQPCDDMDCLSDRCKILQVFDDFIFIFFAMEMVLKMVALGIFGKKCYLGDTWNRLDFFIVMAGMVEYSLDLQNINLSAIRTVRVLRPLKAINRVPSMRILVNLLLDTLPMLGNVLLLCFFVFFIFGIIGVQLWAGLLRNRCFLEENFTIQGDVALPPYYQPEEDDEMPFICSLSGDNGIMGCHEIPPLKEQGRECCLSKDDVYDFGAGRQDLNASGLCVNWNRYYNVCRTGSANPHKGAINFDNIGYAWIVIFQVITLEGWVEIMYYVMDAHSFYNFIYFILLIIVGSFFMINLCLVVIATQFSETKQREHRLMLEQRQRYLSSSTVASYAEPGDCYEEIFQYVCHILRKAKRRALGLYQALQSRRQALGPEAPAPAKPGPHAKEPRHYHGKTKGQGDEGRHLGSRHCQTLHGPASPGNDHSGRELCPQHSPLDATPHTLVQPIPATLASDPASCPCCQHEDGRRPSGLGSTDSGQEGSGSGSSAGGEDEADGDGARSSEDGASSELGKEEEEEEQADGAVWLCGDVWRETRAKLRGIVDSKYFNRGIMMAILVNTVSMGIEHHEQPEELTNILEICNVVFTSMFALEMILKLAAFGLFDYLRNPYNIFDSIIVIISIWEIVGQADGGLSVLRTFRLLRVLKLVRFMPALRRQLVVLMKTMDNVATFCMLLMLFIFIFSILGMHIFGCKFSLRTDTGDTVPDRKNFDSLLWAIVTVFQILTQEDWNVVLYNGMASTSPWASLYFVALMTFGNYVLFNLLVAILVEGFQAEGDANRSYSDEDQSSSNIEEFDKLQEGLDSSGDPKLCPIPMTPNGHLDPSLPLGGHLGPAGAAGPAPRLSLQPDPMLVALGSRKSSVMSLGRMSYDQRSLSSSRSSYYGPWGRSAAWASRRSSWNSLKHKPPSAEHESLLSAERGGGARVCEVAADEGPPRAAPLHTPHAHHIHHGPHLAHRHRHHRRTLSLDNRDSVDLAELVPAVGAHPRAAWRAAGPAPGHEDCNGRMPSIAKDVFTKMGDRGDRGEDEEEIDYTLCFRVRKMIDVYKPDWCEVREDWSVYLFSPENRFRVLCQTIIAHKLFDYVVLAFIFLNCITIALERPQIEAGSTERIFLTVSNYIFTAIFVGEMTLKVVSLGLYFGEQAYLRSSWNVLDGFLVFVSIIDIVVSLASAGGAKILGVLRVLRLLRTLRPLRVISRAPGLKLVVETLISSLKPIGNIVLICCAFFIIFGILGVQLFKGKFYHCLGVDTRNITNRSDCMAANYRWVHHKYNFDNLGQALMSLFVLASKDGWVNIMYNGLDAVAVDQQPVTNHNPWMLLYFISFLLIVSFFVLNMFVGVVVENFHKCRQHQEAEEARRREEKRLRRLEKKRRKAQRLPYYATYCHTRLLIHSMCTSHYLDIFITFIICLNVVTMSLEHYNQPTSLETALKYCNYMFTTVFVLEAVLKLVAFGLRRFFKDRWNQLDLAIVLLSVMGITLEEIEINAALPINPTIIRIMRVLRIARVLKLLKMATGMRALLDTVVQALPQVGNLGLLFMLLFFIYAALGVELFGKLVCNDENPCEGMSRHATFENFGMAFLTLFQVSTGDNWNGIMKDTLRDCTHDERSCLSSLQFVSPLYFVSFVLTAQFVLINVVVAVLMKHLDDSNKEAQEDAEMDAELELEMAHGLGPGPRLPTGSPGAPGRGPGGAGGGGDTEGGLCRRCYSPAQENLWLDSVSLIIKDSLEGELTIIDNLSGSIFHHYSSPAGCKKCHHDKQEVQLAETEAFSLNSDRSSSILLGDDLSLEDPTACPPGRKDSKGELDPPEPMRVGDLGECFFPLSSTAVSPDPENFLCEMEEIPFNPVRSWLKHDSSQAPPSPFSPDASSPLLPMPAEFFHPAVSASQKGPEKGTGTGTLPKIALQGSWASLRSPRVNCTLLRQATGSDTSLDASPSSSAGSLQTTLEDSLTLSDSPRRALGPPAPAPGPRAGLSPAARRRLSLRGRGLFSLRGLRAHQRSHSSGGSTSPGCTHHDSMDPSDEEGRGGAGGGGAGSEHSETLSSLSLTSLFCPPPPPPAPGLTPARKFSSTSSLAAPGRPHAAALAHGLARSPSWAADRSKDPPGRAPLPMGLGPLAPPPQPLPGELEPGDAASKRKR

[2] = molecular target: T1, Voltage-dependent T-type calcium channel subunit alpha-1I; assay: Binding affinity to Cav3.3 alpha1i
[3] = molecular target: Voltage-gated inwardly rectifying potassium channel KCNH2 (Homo sapiens, UniProt Q12809); assay: Inhibition of human ERG
Chain of Voltage-gated inwardly rectifying potassium channel KCNH2 (Q12809 whole entry): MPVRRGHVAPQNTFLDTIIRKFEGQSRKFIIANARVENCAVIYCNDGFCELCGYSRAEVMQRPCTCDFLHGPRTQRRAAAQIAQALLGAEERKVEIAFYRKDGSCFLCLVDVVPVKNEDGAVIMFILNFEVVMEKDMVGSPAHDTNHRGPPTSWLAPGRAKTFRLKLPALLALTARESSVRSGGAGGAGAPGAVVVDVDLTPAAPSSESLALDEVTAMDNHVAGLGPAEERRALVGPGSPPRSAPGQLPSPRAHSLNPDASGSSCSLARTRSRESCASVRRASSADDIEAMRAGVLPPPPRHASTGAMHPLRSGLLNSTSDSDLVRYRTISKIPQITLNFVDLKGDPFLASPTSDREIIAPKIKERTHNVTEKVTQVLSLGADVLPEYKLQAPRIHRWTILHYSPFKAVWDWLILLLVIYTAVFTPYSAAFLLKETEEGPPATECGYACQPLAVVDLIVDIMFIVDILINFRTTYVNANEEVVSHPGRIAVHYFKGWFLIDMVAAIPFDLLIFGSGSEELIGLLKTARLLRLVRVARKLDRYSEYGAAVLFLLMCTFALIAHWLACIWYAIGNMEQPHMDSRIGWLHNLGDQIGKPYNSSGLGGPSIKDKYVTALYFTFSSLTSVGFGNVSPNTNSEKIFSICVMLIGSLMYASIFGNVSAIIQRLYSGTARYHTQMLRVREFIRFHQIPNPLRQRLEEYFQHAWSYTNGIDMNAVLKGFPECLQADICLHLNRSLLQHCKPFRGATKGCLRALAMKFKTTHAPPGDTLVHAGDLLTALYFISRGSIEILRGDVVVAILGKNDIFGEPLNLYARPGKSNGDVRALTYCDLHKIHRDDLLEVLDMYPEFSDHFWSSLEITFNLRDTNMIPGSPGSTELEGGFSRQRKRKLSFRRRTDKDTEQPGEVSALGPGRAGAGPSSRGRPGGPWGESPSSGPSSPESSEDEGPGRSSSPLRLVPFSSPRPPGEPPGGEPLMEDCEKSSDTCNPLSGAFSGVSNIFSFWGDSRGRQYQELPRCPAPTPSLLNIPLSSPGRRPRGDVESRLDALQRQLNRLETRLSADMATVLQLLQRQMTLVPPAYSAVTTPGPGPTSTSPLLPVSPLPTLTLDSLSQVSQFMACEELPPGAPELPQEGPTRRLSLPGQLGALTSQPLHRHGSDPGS

[4] = Binding affinity to L-type Ca2+ channel
Rattus norvegicus [5] = assay: Antiepileptic activity in WAG/Rij rat seizure model assessed as reduction in total seizure time measured for 4 hrs at 10 mg/kg, po by radiotelemetric physiologic monitor; assay type: functional
[6] = molecular target: T1, Voltage-dependent T-type calcium channel subunit alpha-1I; assay: Antagonist activity at Cav3.3 alpha1i expressed in HEK293 cells at -100 mV by standard voltage-clamp electrophysiology assay; assay type: functional, cell-based
[7] = Plasma clearance in dog at 0.5 mg/kg, iv; assay type: ADME, organism-based, Canis lupus familiaris; set-up: dose 0.5 mg/kg, route intravenous
[8] = Half life in dog at 0.5 mg/kg, iv; assay type: ADME, organism-based, Canis lupus familiaris; set-up: dose 0.5 mg/kg, route intravenous; details: in vivo
[9] = Volume of distribution at steady state in dog at 0.5 mg/kg, iv; assay type: ADME, organism-based, Canis lupus familiaris; set-up: dose 0.5 mg/kg, route intravenous; details: in vivo
[10] = Bioavailability in dog at 0.5 mg/kg, iv; assay type: ADME, organism-based, Canis lupus familiaris; details: in vivo
[11] = Plasma clearance in rhesus monkey at 0.5 mg/kg, iv; assay type: ADME, organism-based, Macaca mulatta; set-up: dose 0.5 mg/kg, route intravenous
[12] = Half life in rhesus monkey at 0.5 mg/kg, iv; assay type: ADME, organism-based, Macaca mulatta; set-up: dose 0.5 mg/kg, route intravenous; details: in vivo
[13] = Volume of distribution at steady state in rhesus monkey at 0.5 mg/kg, iv; assay type: ADME, organism-based, Macaca mulatta; set-up: dose 0.5 mg/kg, route intravenous; details: in vivo
[14] = Bioavailability in rhesus monkey at 0.5 mg/kg, iv; assay type: ADME, organism-based, Macaca mulatta; details: in vivo
Rattus norvegicus [15] = assay: Effect on sleep architecture in rat assessed as reduction in active awake at 3 mg/kg, po up to 4 hrs; assay type: functional, organism-based; set-up: dose 3 mg/kg
Rattus norvegicus [16] = assay: Effect on sleep architecture in po dosed rat assessed as reduction in active awake up to 4 hrs; assay type: functional, organism-based
Rattus norvegicus [17] = assay: Effect on sleep architecture in rat assessed as reduction in REM sleep at 3 mg/kg, po up to 4 hrs; assay type: functional, organism-based; set-up: dose 3 mg/kg
Rattus norvegicus [18] = assay: Effect on sleep architecture in rat assessed as increase in delta sleep at 3 mg/kg, po up to 4 hrs; assay type: functional, organism-based; set-up: dose 3 mg/kg
[19] = Cmax in non-implanted rat plasma after 1.2 hrs; assay type: ADME, organism-based
[20] = molecular target: Voltage-dependent T-type calcium channel subunit alpha-1G (Homo sapiens, UniProt O43497); assay: Inhibition of Cav3.1 alpha1G at -80 mV holding potential by tandard voltage-clamp electrophysiology assay
[21] = molecular target: Voltage-dependent T-type calcium channel subunit alpha-1H (Homo sapiens, UniProt O95180); assay: Inhibition of Cav3.2 alpha1H at -80 mV holding potential by tandard voltage-clamp electrophysiology assay
[22] = molecular target: Voltage-dependent L-type calcium channel subunit alpha-1C (Homo sapiens, UniProt Q13936); assay: Inhibition of L-type Cav1.2 at -80 mV holding potential by tandard voltage-clamp electrophysiology assay
[23] = molecular target: Voltage-dependent P/Q-type calcium channel subunit alpha-1A (Homo sapiens, UniProt O00555); assay: Inhibition of P/Q-type Cav2.1 at -80 mV holding potential by tandard voltage-clamp electrophysiology assay
[24] = molecular target: Voltage-dependent N-type calcium channel subunit alpha-1B (Homo sapiens, UniProt Q00975); assay: Inhibition of N-type Cav2.2 at -80 mV holding potential by tandard voltage-clamp electrophysiology assay
[25] = molecular target: Voltage-dependent R-type calcium channel subunit alpha-1E (Homo sapiens, UniProt Q15878); assay: Inhibition of R-type Cav2.3 at -80 mV holding potential by tandard voltage-clamp electrophysiology assay
Mus musculus = species: Mus musculus; assay: Inhibition of high-fat diet-induced weight gain in mouse; assay type: functional, organism-based
[26] = Half life in rat at 2 mg/kg, iv; details: in vivo
[27] = Plasma clearance in rat at 2 mg/kg, iv
[28] = Bioavailability in rat at 2 mg/kg, iv and 10 mg/kg, po; details: in vivo
[29] = Volume of distribution at steady state in rat at 2 mg/kg, iv; details: in vivo

Compound: COc1ccc([C@@H](C)NC(=O)Cc2ccc(Cl)cc2)nc1
- IP [1]: 1330 nM

Compound: COc1ccc([C@@H](C)NC(=O)Cc2ccc(C3CC3)cc2)nc1
- IP [1]: 70 nM

Compound: C[C@@H](NC(=O)Cc1ccc(C2CC2)cc1)c1ccc(OCC(F)(F)F)cn1
- Ki [2]: 0.0012 µM
- IP [1]: 6 nM
- IC50 [3]: > 10 µM
- IC50 [4]: > 10 µM
- inhibition in vivo at 10 mg/kg (Rattus norvegicus [5]): 87%
- IC50 [6]: 3.7 µM
- clearance [7]: 0.9 mL/min/kg
- half-life [8]: 11 h
- Vd [9]: 0.7 L/kg
- bioavailability [10]: 43%
- clearance [11]: 17 mL/min/kg
- half-life [12]: 0.9 h
- Vd [13]: 0.9 L/kg
- bioavailability [14]: 7%
- Activity (Rattus norvegicus [15]): Active
- Activity (Rattus norvegicus [16]): Dose-dependent effect
- Activity (Rattus norvegicus [17]): Active
- Activity (Rattus norvegicus [18]): Active
- Cmax [19]: 4 µM
- IC50 [20]: 0.089 µM
- IC50 [21]: 0.092 µM
- IC50 [22]: > 30 µM
- IC50 [23]: > 30 µM
- IC50 [24]: > 30 µM
- IC50 [25]: > 30 µM
- inhibition (Mus musculus): Active
- half-life [26]: 1.5 h
- clearance [27]: 6 mL/min/kg
- bioavailability [28]: 68%
- Vd [29]: 0.8 L/kg

Compound: CC(C)c1ccc(CC(=O)N[C@H](C)c2ccc(OCC(F)(F)F)cn2)cc1
- IP [1]: 5 nM

Compound: COc1ccc([C@@H](C)NC(=O)Cc2ccc(C(C)C)cc2)nc1
- IP [1]: 45 nM

Compound: COc1ccc([C@@H](C)NC(=O)Cc2ccc(Cl)c(Cl)c2)nc1
- IP [1]: 252 nM

Compound: C[C@@H](NC(=O)Cc1ccc(C2CC2)cc1)c1ccc(OCc2ccccc2)cn1
- IP [1]: 21 nM

Compound: COc1ccc([C@@H](C)NC(=O)Cc2cccc(Cl)c2)nc1
- IP [1]: 2780 nM

Compound: COc1ccc([C@@H](C)NC(=O)Cc2ccc(C#N)cc2)nc1
- IP [1]: > 5000 nM

Compound: C[C@@H](NC(=O)Cc1ccc(C2CC2)cc1)c1ccc(O)cn1
- IP [1]: 1720 nM

Compound: CC(C)c1ccc(CC(=O)N[C@H](C)c2ccc(OCc3ccccc3)cn2)cc1
- IP [1]: 16 nM

Compound: CCCOc1ccc([C@@H](C)NC(=O)Cc2ccc(C3CC3)cc2)nc1
- IP [1]: 11 nM

Compound: COc1ccc([C@@H](C)NC(=O)Cc2ccc(S(C)(=O)=O)cc2)nc1
- IP [1]: > 10000 nM

Compound: COC(=O)c1ccc(CC(=O)N[C@H](C)c2ccc(OC)cn2)cc1
- IP [1]: 1450 nM

Compound: COc1ccc([C@@H](C)NC(=O)Cc2ccc(F)cc2)nc1
- IP [1]: > 10000 nM

Compound: CCCOc1ccc([C@@H](C)NC(=O)Cc2ccc(C(C)C)cc2)nc1
- IP [1]: 10 nM

Compound: COc1ccc(CC(=O)N[C@H](C)c2ccc(OC)cn2)cc1
- IP [1]: 1740 nM

Compound: COc1ccc([C@@H](C)NC(=O)Cc2ccccc2Cl)nc1
- IP [1]: > 5000 nM

Compound: CC(C)c1ccc(CC(=O)N[C@H](C)c2ccc(O)cn2)cc1
- IP [1]: 920 nM

Further lines, with some results ahead:

- IP [1]: 235 nM
Compound: C[C@@H](NC(=O)Cc1ccc(C(C)(C)C)cc1)c1ccccc1

- Ki [2]: 0.005 µM
- IP [1]: 22 nM
- IC50 [4]: > 10 µM
Compound: COc1ccc([C@@H](C)NC(=O)Cc2ccc(C(C)(C)C)cc2)nc1
- IC50 [3]: > 10 µM
- inhibition in vivo at 10 mg/kg (Rattus norvegicus [5]): 49%

- IP [1]: 4680 nM
Compound: C[C@H](NC(=O)Cc1ccc(C(C)(C)C)cc1)c1ccccc1

- IP [1]: > 10000 nM
Compound: C[C@H](c1ccccc1)N(C)C(=O)Cc1ccc(C(C)(C)C)cc1

- IP [1]: 439 nM
Compound: COc1ccc([C@@H](C)NC(=O)Cc2ccc(Oc3ccccc3)cc2)nc1

- IP [1]: > 10000 nM
Compound: COc1ccc([C@@H](C)NC(=O)Cc2ccccc2)nc1

- IP [1]: 123 nM
Compound: C[C@@H](NC(=O)Cc1ccc(C(C)(C)C)cc1)c1ccc(Cl)cc1

- IP [1]: 5380 nM
Compound: CC(NC(=O)Cc1ccc(C(C)(C)C)cc1)c1cccnc1 (racemic)

- IP [1]: 427 nM
Compound: CC(NC(=O)Cc1ccc(C(C)(C)C)cc1)c1ccccn1 (racemic)

- IP [1]: > 10000 nM
Compound: CC(NC(=O)Cc1ccc(C(C)(C)C)cc1)c1ccncc1 (racemic)

- IP [1]: 146 nM
Compound: COc1cccc([C@@H](C)NC(=O)Cc2ccc(C(C)(C)C)cc2)c1

- IP [1]: 30 nM
Compound: C[C@@H](NC(=O)Cc1ccc(C(C)(C)C)cc1)c1ccc(Cl)cn1

- IP [1]: 146 nM
Compound: COc1ccc([C@@H](C)NC(=O)Cc2ccc(C(C)(C)C)cc2)cc1

- IP [1]: 1130 nM
Compound: COc1ccc([C@@H](C)NC(=O)Cc2ccc(C(C)(C)O)cc2)nc1

- IP [1]: 5480 nM
Compound: CC(C)(C)c1ccc(CC(=O)NC(C)(C)c2ccccc2)cc1

- IP [1]: 332 nM
Compound: CC(NC(=O)Cc1ccc(C(C)(C)C)cc1)c1ccccc1Cl (racemic)
